Measurements published in patent US20190274300A1, “PRESERVATIVE SOLUTION FOR LIVE CELLS OR COMPOSITION CONTAINING LIVE CELLS” (TERUMO KABUSHIKI KAISHA, priority 2016, published 2019).

System: sheet-shaped human skeletal myoblast cell culture
Experiment: Cell survival rate confirmation test: sheet-shaped cell culture kept refrigerated in preservative solution, PI staining, flow cytometry
Type: cell-based
Details: 2° C. to 8° C.
Method: The sheet-shaped cell cultures were prepared using skeletal myoblast cells (with fibroblast cells contained therein) prepared from a human skeletal muscle by a usual or known method. A cell mixture of human skeletal myoblast cells and human fibroblast cells suspended in a 20% human serum-containing DMEM/F12 medium (Thermo Fisher Scientific Inc.) was seeded at 3.7×10^6 cells/well on a temperature-responsive culture dish (UpCell® 12 well Multi-well, CellSeed Inc.), and was then subjected to the sheet-formation cultivation at 37° C. under 5% CO2 for 12 to 26 hours. After the sheet-formation cultivation, the medium was removed, 700 μL of HBSS (+) (Thermo Fisher Scientific Inc.) which was chilled to 4° C. was added, and then the resultant was left to stand for 10 minutes. Then, gentle pipetting was conducted such as to detach the sheet-shaped cell culture completely.
After the sheet-shaped cell culture was completely detached, HBSS (+) was removed, and a fresh supply of room-temperature HBSS (+) was added to conduct rinsing. Such a washing step was repeated four times.
The sheet-shaped cell culture left to stand under the refrigerated conditions in (1) above was put to measurement of cell survival rate. After the sheet-shaped cell culture left to stand in the preservative solution for a predetermined period was dissociated with a trypsin-like protease, the cells were dispensed into a FACS tube to be 3.5×10^5 cells, followed by centrifugation, and the supernatant was discarded. To the resultant was added 3 ml of 0.5% BAS-containing PBS solution, and, after rinsing the cells by vortex, centrifugation was conducted, the supernatant was removed, and 500 μL of a propidium iodide (PI, Becton Dickinson) prepared to a final concentration of 0.6 μg/mL by use of a 0.5% BSA-containing PBS solution was added and mixed. Immediately after the mixing, the mixture was put to reaction at room temperature under a light shielding condition for approximately five minutes. After the reaction, a 0.5% BSA-containing PBS solution was added, the cells were rinsed by vortex, followed by centrifugation, then the supernatant was removed, 500 μL of a 0.5% BSA-containing PBS solution was added, and the resultant was put to an analysis. The analysis was conducted using a flow cytometer (Becton Dickinson), and the proportion of PI-unstained cells contained in the whole cells admixed with PI was measured. […]
As a control, a DMEM medium (Thermo Fisher Scientific Inc.) was used.

## CC1=NN(c2ccccc2)C(=O)C1 [edaravone, 3-methyl-1-phenyl-2-pyrazolin-5-one]
1 μM edaravone in physiological saline solution, five days
  cell survival rate: approximately 95%
1 μM or 10 μM edaravone in physiological saline solution, five days
  cell survival rate as compared to the case of no addition of edaravone: increased
10 μM edaravone in physiological saline solution, five days
  cell survival rate: approximately 97%
100 μM edaravone in HBSS (+)
  lowering in the number of live cells from three days to seven days of preservation, compared to edaravone-nonadded HBSS (+): restrained
100 μM edaravone in HBSS (+), three days to seven days
  cell survival rate as compared to HBSS (+) not admixed with edaravone: higher cell survival rate

## O=C1O[C@H]([C@@H](O)CO)C(O)=C1O [vitamin C, ascorbic acid]
0.2 mM vitamin C in physiological saline solution, three days
  cell survival rate: approximately 63%
2 mM vitamin C in physiological saline solution, three days
  cell survival rate: approximately 85%

## tocopherol [vitamin E]
10 μM vitamin E in physiological saline solution, three days
  cell survival rate: approximately 65%
100 μM vitamin E in physiological saline solution, three days
  cell survival rate: approximately 65%
